In patent US10770169B2, “Method of providing a treatment to a subject based on a dynamic pathway map” (THE REGENTS OF THE UNIVERSITY OF CALIFORNIA, priority 2010, dated 2020):
“Also recorded” adds a separate entry of the source.

How the values were obtained:
Format in all cases: cell-based, human
[1] = test system: panel of 55 breast cancer cell lines; experiment: Cell growth inhibition assay (Cell Titer Glo, 72 h, 9 doses; GI50, TGI, LC50); conditions: value is the negative log10 of mol/L
[2] = test system: luminal, basal, claudin-low and ERBB2AMP breast cancer cell lines; experiment: Associations of clinically relevant subtypes and response (non-parametric ANOVA or t-test on GI50 ranks); conditions: for Subtype specificity: Table 6, most sensitive subtype, FDR p<0.20
Procedure, shortened: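 Significance was set at FDR p<0.20 after combining p-values across three test sets. Subtype–response associations came from rank-based non-parametric ANOVA or t-tests on GI50. For three-class comparisons, post-hoc tests of each group against the rest identified the most sensitive group, with FDR correction.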

[3] = test system: breast cancer cell lines with aberrant vs normal copy number; experiment: Association of recurrent copy number changes and response (t-test on GI50); conditions: FDR p<0.2
Description: We used a t-test to assess the association between recurrent copy number changes (at 8q24 (MYC), 11q13 (CCND1), 20q13 (STK15/AURKA)) and drug sensitivity. We combined into a single group cell lines with low or no amplification and compared them to cell lines with high amplification. […] Cell lines for which the GI50 was equal to the maximum concentration tested were omitted from analysis. We omitted compounds where any group had fewer than five samples.

[4] = 600MPE cell line, censored GI50 values
[5] = AU565 cell line, censored GI50 values
[6] = BT474 cell line, censored GI50 values
[7] = BT483 cell line, censored GI50 values
[8] = CAMA1 cell line, censored GI50 values
[9] = HCC38 cell line, censored GI50 values
[10] = HCC70 cell line, censored GI50 values
[11] = HCC202 cell line, censored GI50 values
[12] = HCC1143 cell line, censored GI50 values
[13] = HCC1187 cell line, censored GI50 values
[14] = HCC1395 cell line, censored GI50 values
[15] = HCC1419 cell line, censored GI50 values
[16] = HCC1428 cell line, censored GI50 values
[17] = HCC1500 cell line, censored GI50 values
[18] = HCC1806 cell line, censored GI50 values
[19] = HCC1937 cell line, censored GI50 values
[20] = HCC1954 cell line, censored GI50 values
[21] = HCC2185 cell line, censored GI50 values
[22] = HCC3153 cell line, censored GI50 values
[23] = MCF7 cell line, censored GI50 values
[24] = MDAMB134VI cell line, censored GI50 values
[25] = MDAMB157 cell line, censored GI50 values
[26] = MDAMB175VII cell line, censored GI50 values
[27] = MDAMB231 cell line, censored GI50 values
[28] = MDAMB361 cell line, censored GI50 values
[29] = MDAMB415 cell line, censored GI50 values
[30] = MDAMB436 cell line, censored GI50 values
[31] = MDAMB453 cell line, censored GI50 values
[32] = MDAMB468 cell line, censored GI50 values
[33] = SKBR3 cell line, censored GI50 values
[34] = SUM149PT cell line, censored GI50 values
[35] = SUM159PT cell line, censored GI50 values
[36] = SUM185PE cell line, censored GI50 values
[37] = SUM1315MO2 cell line, censored GI50 values

Compound: N.N.O=C([O-])C1(C(=O)[O-])CCC1.[Pt+2] [Carboplatin]
- GI50 [1, 4]: 3.82
- GI50 [1, 5]: 4.94
- GI50 [1, 6]: 3.98
- GI50 [1, 7]: 5.82
- GI50 ([1]; BT549 cell line, censored GI50 values): 4.58
- GI50 [1, 8]: 3.72
- GI50 [1, 9]: 4.76
- GI50 [1, 10]: 4.82
- GI50 [1, 11]: 4.44
- GI50 [1, 12]: 3.85
- GI50 [1, 13]: 4.66
- GI50 [1, 14]: 5.00
- GI50 [1, 15]: 4.15
- GI50 [1, 16]: 3.86
- GI50 [1, 17]: 4.69
- GI50 [1, 18]: 4.80
- GI50 [1, 19]: 4.44
- GI50 [1, 20]: 4.37
- GI50 [1, 21]: 4.69
- GI50 [1, 22]: 4.45
- GI50 ([1]; LY2 cell line, censored GI50 values): 4.39
- GI50 [1, 23]: 3.77
- GI50 [1, 24]: 3.73
- GI50 [1, 25]: 4.07
- GI50 [1, 26]: 4.44
- GI50 [1, 27]: 4.09
- GI50 [1, 28]: 4.34
- GI50 [1, 29]: 3.73
- GI50 [1, 30]: 4.18
- GI50 [1, 31]: 4.23
- GI50 [1, 32]: 4.31
- GI50 [1, 33]: 4.87
- GI50 ([1]; SUM52PE cell line, censored GI50 values): 4.71
- GI50 [1, 34]: 4.87
- GI50 [1, 35]: 4.55
- GI50 [1, 36]: 3.90
- GI50 [1, 37]: 4.56
- GI50 ([1]; T47D cell line, censored GI50 values): 3.95
- GI50 ([1]; UACC812 cell line, censored GI50 values): 4.81
- GI50 ([1]; ZR75B cell line, censored GI50 values): 3.52
- GI50 ([1]; ZR751 cell line, censored GI50 values): 4.07
- GI50 ([1]; ZR7530 cell line, censored GI50 values): 4.55
- GI50 ([1]; cell line 600MPE): 3.82
- GI50 ([1]; cell line AU565): 4.94
- GI50 ([1]; cell line BT474): 3.98
- GI50 ([1]; cell line BT483): 5.82
- GI50 ([1]; cell line BT549): 4.58
- GI50 ([1]; cell line CAMA1): 3.72
- GI50 ([1]; cell line HCC38): 4.76
- GI50 ([1]; cell line HCC70): 4.82
- GI50 ([1]; cell line HCC202): 4.44
- GI50 ([1]; cell line HCC1143): 3.85
- GI50 ([1]; cell line HCC1187): 4.66
- GI50 ([1]; cell line HCC1395): 5.00
- GI50 ([1]; cell line HCC1419): 4.15
- GI50 ([1]; cell line HCC1428): 3.86
- GI50 ([1]; cell line HCC1500): 4.69
- GI50 ([1]; cell line HCC1806): 4.80
- GI50 ([1]; cell line HCC1937): 4.44
- GI50 ([1]; cell line HCC1954): 4.37
- GI50 ([1]; cell line HCC2185): 4.69
- GI50 ([1]; cell line HCC3153): 4.45
- GI50 ([1]; cell line LY2): 4.39
- GI50 ([1]; cell line MCF7): 3.77
- GI50 ([1]; cell line MDAMB134V): 3.73
- GI50 ([1]; cell line MDAMB157): 4.07
- GI50 ([1]; cell line MDAMB175V): 4.44
- GI50 ([1]; cell line MDAMB231): 4.09
- GI50 ([1]; cell line MDAMB361): 4.34
- GI50 ([1]; cell line MDAMB415): 3.73
- GI50 ([1]; cell line MDAMB436): 4.18
- GI50 ([1]; cell line MDAMB453): 4.23
- GI50 ([1]; cell line MDAMB468): 4.31
- GI50 ([1]; cell line SKBR3): 4.87
- GI50 ([1]; cell line SUM52PE): 4.71
- GI50 ([1]; cell line SUM149PT): 4.87
- GI50 ([1]; cell line SUM159PT): 4.55
- GI50 ([1]; cell line SUM185PE): 3.90
- GI50 ([1]; cell line SUM1315MO): 4.56
- GI50 ([1]; cell line T47D): 3.95
- GI50 ([1]; cell line UACC812): 4.81
- GI50 ([1]; cell line UACC893): 3.04
- GI50 ([1]; cell line ZR75B): 3.52
- GI50 ([1]; cell line ZR751): 4.07
- GI50 ([1]; cell line ZR7530): 4.55
- Subtype specificity [2]: Basal + Claudin-low
- association of response with amplification at 11q13 (CCND1) [3]: associated with sensitivity; also recorded: associated with response

Compound: CCn1cc(-c2ccnc3[nH]c(-c4cccc(CN(C)C)c4)cc23)c(-c2ccc(NC(=O)N(C)C)cc2)n1 [GSK1070916]
- GI50 [1, 4]: 5.10
- GI50 [1, 5]: 5.52
- GI50 [1, 6]: 5.19
- GI50 [1, 7]: 5.35
- GI50 [1, 8]: 5.05
- GI50 [1, 9]: 6.44
- GI50 [1, 10]: 6.59
- GI50 [1, 11]: 6.03
- GI50 [1, 12]: 5.51
- GI50 [1, 13]: 7.95
- GI50 [1, 14]: 6.24
- GI50 [1, 15]: 5.18
- GI50 [1, 16]: 5.19
- GI50 [1, 17]: 5.19
- GI50 [1, 18]: 5.16
- GI50 [1, 19]: 5.42
- GI50 [1, 20]: 5.56
- GI50 [1, 21]: 6.34
- GI50 [1, 22]: 4.95
- GI50 [1, 23]: 5.06
- GI50 [1, 24]: 5.57
- GI50 [1, 25]: 5.95
- GI50 [1, 26]: 5.07
- GI50 [1, 27]: 5.78
- GI50 [1, 28]: 5.19
- GI50 [1, 29]: 5.76
- GI50 [1, 30]: 7.01
- GI50 [1, 31]: 5.51
- GI50 [1, 32]: 7.89
- GI50 [1, 33]: 5.29
- GI50 [1, 34]: 5.48
- GI50 [1, 35]: 5.77
- GI50 [1, 36]: 5.94
- GI50 [1, 37]: 5.89
- GI50 ([1]; cell line 600MPE): 5.10
- GI50 ([1]; cell line AU565): 5.52
- GI50 ([1]; cell line BT474): 5.19
- GI50 ([1]; cell line BT483): 5.35
- GI50 ([1]; cell line CAMA1): 5.05
- GI50 ([1]; cell line HCC38): 6.44
- GI50 ([1]; cell line HCC70): 6.59
- GI50 ([1]; cell line HCC202): 6.03
- GI50 ([1]; cell line HCC1143): 5.51
- GI50 ([1]; cell line HCC1187): 7.95
- GI50 ([1]; cell line HCC1395): 6.24
- GI50 ([1]; cell line HCC1419): 5.18
- GI50 ([1]; cell line HCC1428): 5.19
- GI50 ([1]; cell line HCC1500): 5.19
- GI50 ([1]; cell line HCC1806): 5.16
- GI50 ([1]; cell line HCC1937): 5.42
- GI50 ([1]; cell line HCC1954): 5.56
- GI50 ([1]; cell line HCC2185): 6.34
- GI50 ([1]; cell line HCC3153): 4.95
- GI50 ([1]; cell line MCF7): 5.06
- GI50 ([1]; cell line MDAMB134V): 5.57
- GI50 ([1]; cell line MDAMB157): 5.95
- GI50 ([1]; cell line MDAMB175V): 5.07
- GI50 ([1]; cell line MDAMB231): 5.78
- GI50 ([1]; cell line MDAMB361): 5.19
- GI50 ([1]; cell line MDAMB415): 5.76
- GI50 ([1]; cell line MDAMB436): 7.01
- GI50 ([1]; cell line MDAMB453): 5.51
- GI50 ([1]; cell line MDAMB468): 7.89
- GI50 ([1]; cell line SKBR3): 5.29
- GI50 ([1]; cell line SUM52PE): 6.84
- GI50 ([1]; cell line SUM149PT): 5.48
- GI50 ([1]; cell line SUM159PT): 5.77
- GI50 ([1]; cell line SUM185PE): 5.94
- GI50 ([1]; cell line SUM1315MO): 5.89
- GI50 ([1]; cell line UACC812): 4.51
- GI50 ([1]; cell line UACC893): 5.06
- GI50 ([1]; cell line ZR75B): 5.75
- GI50 ([1]; cell line ZR751): 4.94
- GI50 ([1]; cell line ZR7530): 4.71
- subtype-specific response (sensitivity by transcriptional subtype) ([2]; GI50 across subtypes): more active against basal and claudin-low cell lines
- Subtype specificity [2]: Claudin-low
- association of response with amplification at 11q13 (CCND1) [3]: associated with sensitivity; also recorded: associated with response
- association of response with amplification at 20q13 (STK15/AURKA) [3]: associated with resistance, rather than sensitivity
